Measured values taken from USRE46604E1, “Treatment of circadian rhythm disorders” (VANDA PHARMACEUTICALS, INC., priority 2012, dated 2017).
Like-named read-outs stand apart in the source and are kept apart here. Each block holds one compound with its values, some of them ahead of it.

Experiments:
MT1R = MT1R (Homo sapiens, UniProt P48039); assay: Melatonin receptor MT1R affinity; format: binding
[1] = Effect of smoking on pharmacokinetics; format: in vivo, human; conditions: for Vd/F: read-out: Vz/F; for half-life: read-out: t½ (converted)
Excerpt: Smokers were defined as those smoking 10 or more cigarettes per day. Non-smokers were defined as those smoking no cigarettes per day.

MT2R = target: T1, MT2R (Homo sapiens, UniProt P49286); assay: Melatonin receptor MT2R affinity; format: binding
T1 sequence (P49286 1-362): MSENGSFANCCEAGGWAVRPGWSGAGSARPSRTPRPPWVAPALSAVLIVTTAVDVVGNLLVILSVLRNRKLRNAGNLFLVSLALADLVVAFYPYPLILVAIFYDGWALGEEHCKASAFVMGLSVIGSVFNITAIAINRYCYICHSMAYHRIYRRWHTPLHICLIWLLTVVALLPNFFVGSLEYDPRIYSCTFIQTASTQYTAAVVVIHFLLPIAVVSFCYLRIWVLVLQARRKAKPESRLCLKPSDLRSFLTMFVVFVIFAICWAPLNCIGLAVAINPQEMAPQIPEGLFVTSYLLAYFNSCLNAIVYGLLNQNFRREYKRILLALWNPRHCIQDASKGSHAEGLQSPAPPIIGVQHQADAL

Non-24 patients = assay: Entrainment by baseline peak aMT6s and beta blocker status (clinical studies); format: in vivo, humans
Method: A useful protocol for estimating tau in candidates for clinical testing for treatment of Non-24, which method can be applied to diagnosis of Non-24 in a given patient, is as follows: • Each subject will undergo four 48-hour urine collection sessions at nominal days 7, 14, 21, and 28. During each session, the start of the session and the time of each void will be recorded. Urine collected over periods of 4 hours (with the first 4 hour collection period of the day beginning at scheduled wake time), or about 8 hours during sleep, will be pooled (the “collection interval”); thus, subjects will have a total of 10 urine collection intervals during each 48-hour period. A study nurse will determine the volume of urine collected during each interval (urine will be transferred to a graduated cylinder) and an aliquot will be assayed for aMT6s. • For each collection interval, the start and end time of the interval will be used to determine the midpoint and duration of the interval. The start time of a given interval is defined as the last void time from the prior 4 hour (or 8 hour) collection interval; the end time of a given interval is defined as the last void time within the collection interval. • The mass of the primary melatonin metabolite (aMT6s) excreted during the interval will be determined as the product of aMT6s concentration and volume of urine. Rate of aMT6s excretion will be determined as the mass of aMT6s excreted divided by the duration of the interval. […] For screening there will be occasions when the 4 different weeks that urine collections are conducted will span a change in the clock time. Therefore, all urine collection times will be automatically translated into local standard time for calculations and then translated back to DST for reporting purposes, if appropriate. • In certain situations, urine collections or their recording will be incomplete. The following procedures will be invoked to address this: • 1. If a subject fails to timestamp a void, no action will be taken if there are multiple voids with timestamps within one interval. • 2. If there is only one void in a collection interval, and the patient cannot recall the time of the void then the entire 48 hour collection period will be excluded from the analysis and the subject will be requested to collect an additional 48 hours of urine after Day 28. It would not be possible to accurately determine to which collection interval the unmarked urine belongs. Consequently, the appropriate assignment of start and stop times to all of the collection intervals would be questionable. • 3. If a void is discarded by the patient but the time of the void is known, duration associated with that void (time of the void minus the time of the previous void) will be subtracted from the total duration associated with that interval. This modified duration will be used to calculate rate of aMT6s excretion. If a discarded sample is either the first or last of the samples in an interval, the midpoint of that interval will be calculated without considering that sample. • 4. If fewer than 4 samples are available for one 48-hour collection session, fitting of the cosine will be compromised (inadequate degrees of freedom). Consequently, acrophase will not be determined if fewer than four samples are available. • For each session, acrophase will be determined by fitting a cosine to the data from that session using unweighted non-linear regression. Fitting will be performed using a non-linear least squares fitting algorithm. The fitting process will estimate phase shift, mesor, and amplitude and their respective standard errors; period of the cosine will be fixed to 24 hours.* • Acrophase will be determined as the phase shift modulus 24 hours. • If acrophase values are available for three or more sessions, tau will be calculated using the following procedure: • 1. Acrophase will be recalculated relative to day 0 (24·start day for each session+acrophase). • 2. […]

tmax as stated in text = conditions: in vivo
[2] = Fluvoxamine co-administration pharmacokinetic study; format: in vivo, human
Method: Twenty-four healthy male or female subjects between the ages of 18 and 55 years of age (inclusive) who were non-smokers with a body mass index (BMI) of ≧18 and ≦35 kg/m2 participated in this open-label, single-sequence study conducted at one site. On day 1, subjects were administered 5.667 mg of tasimelteon.

[3] = human, in vivo, Smokers (10 or more cigarettes per day)
[4] = both sexes, human, in vivo, Day 1: 5.667 mg tasimelteon alone
[5] = compared to tasimelteon administered alone
[6] = Smokers (10 or more cigarettes per day)

MT1R, sequence (P48039 whole entry): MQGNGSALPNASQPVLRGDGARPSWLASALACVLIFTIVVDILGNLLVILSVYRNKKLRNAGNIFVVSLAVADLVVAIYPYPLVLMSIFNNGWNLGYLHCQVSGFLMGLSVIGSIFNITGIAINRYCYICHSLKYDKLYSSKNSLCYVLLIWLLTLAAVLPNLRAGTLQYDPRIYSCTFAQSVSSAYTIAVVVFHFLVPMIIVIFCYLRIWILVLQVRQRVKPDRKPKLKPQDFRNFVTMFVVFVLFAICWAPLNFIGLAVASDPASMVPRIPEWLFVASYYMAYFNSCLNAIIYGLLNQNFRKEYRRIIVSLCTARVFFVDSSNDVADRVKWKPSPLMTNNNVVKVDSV

Ki (MT1R): 0.3 to 0.4 nM
AUC(0-inf) ([1]; human, in vivo, Non-Smokers): 389 ± 429 ng·h/mL
Cmax ([1]; human, in vivo, Non-Smokers): 239 ± 177 ng/mL
Tmax ([1]; human, in vivo, Non-Smokers, read-out: Tmax): 30 min
Vd/F ([1]; human, in vivo, Non-Smokers): 133 ± 83 L
half-life ([1]; human, in vivo, Non-Smokers): 70.8 ± 27.6 min
AUC(0-inf) [1, 3]: 205 ± 152 ng·h/mL
Cmax [1, 3]: 136 ± 59.5 ng/mL
Tmax ([1]; human, in vivo, Smokers (10 or more cigarettes per day), read-out: Tmax): 45 min
Vd/F [1, 3]: 189 ± 94.2 L
half-life [1, 3]: 59.4 ± 10.8 min
Ki (MT2R): 0.1 to 0.2 nM
Tmax (tmax as stated in text): approximately one-half
AUC(0-inf) [2, 4]: 102 ± 61.5 ng·h/mL
Cmax [2, 4]: 68 ± 28.9 ng/mL
Tmax [2, 4]: 30 min
half-life ([2]; both sexes, human, in vivo, Day 1: 5.667 mg tasimelteon alone, read-out: t½ (converted)): 72 ± 13.2 min
increase of AUC0-inf upon co-administration of fluvoxamine [2, 5]: approximately 7 fold
increase of Cmax upon co-administration of fluvoxamine [2, 5]: approximately 2 fold
Structure (SMILES): CCC(=O)NC[C@@H]1C[C@H]1c1cccc2c1CCO2 (relative stereo) [Tasimelteon, trans-N-[[2-(2,3-dihydrobenzofuran-4-yl)cycloprop-1yl]methyl]propanamide]
Entrained, percent of patients (Non-24 patients; Peak aMT6s <1500 ng/hr): 41%
Non-entrained, percent of patients (Non-24 patients; Peak aMT6s <1500 ng/hr): 59%
Entrained, percent of patients (Non-24 patients; Peak aMT6s <2000 ng/hr): 38%
Non-entrained, percent of patients (Non-24 patients; Peak aMT6s <2000 ng/hr): 62%
Entrained, percent of patients (Non-24 patients; Peak aMT6s ≧1500 ng/hr): 67%
Non-entrained, percent of patients (Non-24 patients; Peak aMT6s ≧1500 ng/hr): 33%
Entrained, percent of patients (Non-24 patients; Peak aMT6s ≧2000 ng/hr): 85%
Non-entrained, percent of patients (Non-24 patients; Peak aMT6s ≧2000 ng/hr): 15%
Entrained, percent of patients (Non-24 patients; Peak aMT6s: All): 51%
Non-entrained, percent of patients (Non-24 patients; Peak aMT6s: All): 49%

AUC(0-inf) [2, 4]: 44.5 ± 17.2 ng·h/mL
Structure (SMILES): CCC(=O)NC[C@@H]1CC1c1cccc(O)c1CCO (some centres unmarked) [M9]

AUC (inf) [1, 6]: 526 ± 193 h x ng/mL
Tmax [1, 6]: 60 min
Structure (SMILES): CCC(=O)NCC1CC1c1cccc2c1C(O)CO2 (centres unmarked) [M12]

AUC(0-inf) [2, 4]: 104 ± 30 ng·h/mL
Structure (SMILES): CCC(=O)NC[C@@H]1CC1c1cccc(O)c1CC(=O)O (some centres unmarked) [M11]

AUC (inf) [1, 6]: 9.45 ± 11.88 h x ng/mL
Tmax [1, 6]: 45 min
Structure (SMILES): CCC(=O)NCC1CC1c1cccc2c1C(O)CO2 (centres unmarked) [M14]
